Data: ChEMBL document CHEMBL3400014, “Cytotoxic acyl amides from the soil fungus Gymnascella dankaliensis” (Bioorg Med Chem, 2015)
The source made the active and inactive calls. The calls are words filed in the database; no cut-off is given here.

System: L5178Y
Assay: Cytotoxicity against mouse L5178Y cells by MTT assay
Type: functional, cell-based

SMILES	IC50 [nM]	Activity
CCCCCC[C@@H](C)/C=C(C)/C=C/C(=O)N[C@H]1CC2(C=C(Cl)C(=O)C(Cl)=C2)OC1O (some centres not stated)	640	
CC(/C=C/C(N)=O)=C\[C@H](C)CC(=O)O		inactive
CC(/C=C/C(=O)NC(Cc1ccc(O)cc1)C(=O)O)=C\[C@H](C)CCCCCC(=O)O (mixture of isomers)		inactive
CCCCCC[C@@H](C)/C=C(C)/C=C/C(=O)N[C@H]1C[C@]2(O[C@H]1OC)[C@@H]1O[C@@H]1C(=O)[C@@H]1O[C@@H]12	440	
CCCCCC[C@@H](C)/C=C(C)/C=C/C(=O)N[C@H]1C[C@]2(C=C(Cl)C(=O)[C@H](Cl)[C@H]2O)O[C@H]1OC	5800	
CCCCCC[C@@H](C)/C=C(C)/C=C/C(=O)N[C@H]1C[C@]2(OC1O)[C@@H]1O[C@@H]1C(O)[C@@H]1O[C@@H]12 (some centres not stated)		inactive
CC(/C=C/C(=O)NC(Cc1ccc(O)cc1)C(=O)O)=C\[C@H](C)CCCCCCO (mixture of isomers)		inactive
CC(/C=C/C(=O)NC(CO)Cc1ccc(O)cc1)=C\C(C)CC(=O)O (mixture of isomers)		inactive
CC(/C=C/C(=O)NC(Cc1ccc(O)cc1)C(=O)O)=C\[C@H](C)CC(=O)O (mixture of isomers)		inactive
CCCCCC[C@@H](C)/C=C(C)/C=C/C(N)=O		inactive
CCCCCC[C@@H](C)/C=C(C)/C=C/C(=O)N[C@H]1C[C@]2(OC1O)[C@@H]1O[C@@H]1C(O)(CC(C)=O)[C@@H]1O[C@@H]12 (some centres not stated)		inactive
CCCCCC[C@@H](C)/C=C(C)/C=C/C(=O)N[C@H]1C[C@]2(OC1O)[C@@H]1O[C@@H]1C(=O)[C@@H]1O[C@@H]12 (some centres not stated)	580	
